Tested on: HT29 human colorectal adenocarcinoma cell line
Experiment: cell proliferation assay (Cell Titer-Glo luminescent cell viability assay)
Assay type: cell-based
Settings: HT-29, 72 h, read-out: pIC50 (converted)
Description: The cell culture and proliferation assay may be carried out as follows: the HT29 human colorectal adenocarcinoma cell line (ATCC, USA) was maintained in Dulbecco's Modified Eagle's Medium (Invitrogen, USA) supplemented with 10% fetal bovine serum (JRH, USA). The cell proliferation assay was carried out with the Cell Titer-Glo luminescent cell viability assay (Promega, USA) according to the manufacture's instruction after the 72 hr treatment of the cells in the presence of the compounds. The cell viability was shown as a percentage of DMSO treated cells.

Structure (SMILES)	IC50
CN1CCC(NC(=O)c2ccc(Nc3ncc4c(n3)N(C3CCCC3)CC(C)(C)C(=O)N4C)c(O)c2)CC1 [Compound 121]	3.16 to 10 nM

Same assay, conditions: HT-29, cell proliferative assay, HT29 cells, 72 hr treatment, values given as ranges, read-out: pIC50 (converted)

Structure (SMILES)	IC50
COc1cc(C(=O)NN2CCN(CCO)CC2)ccc1Nc1ncc2c(n1)N(C1CCCC1)CC(C)(C)C(=O)N2C [Compound 105, 4-(9-cyclopentyl-5,7,7-trimethyl-6-oxo-6,7,8,9-tetrahydro-5H-pyrimido[4,5-b][1,4]diazepin-2-ylamino)-N-(4-(2-hydroxyethyl)piperazin-1-yl)-3-methoxybenzamide]	1 to 2.51 nM
COc1cc(C(=O)N[C@H]2CCCNC2)ccc1Nc1ncc2c(n1)N(C1CCCCC1)CC1(CC1)C(=O)N2C [Compound 174, (S)-4-(9′-cyclohexyl-5′-methyl-6′-oxo-5′,6′,8′,9′-tetrahydrospiro[cyclopropane-1,7′-pyrimido[4,5-b][1,4]diazepine]-2′-ylamino)-3-methoxy-N-(piperidin-3-yl)benzamide]	1 to 2.51 nM
C#CCC1CN(C2CCCC2)c2nc(Nc3ccc(C(=O)NC4CCNCC4)cc3OC)ncc2N(C)C1=O (centres unmarked) [Compound 211, 4-(9-cyclopentyl-5-methyl-6-oxo-7-(prop-2-ynyl)-6,7,8,9-tetrahydro-5H-pyrimido[4,5-b][1,4]diazepin-2-ylamino)-3-methoxy-N-(piperidin-4-yl)benzamide]	1 to 2.51 nM
COc1cc(C(=O)N[C@H]2CCCNC2)ccc1Nc1ncc2c(n1)N(C1CCCC1)CC(C)(C)C(=O)N2C [Compound 101, (S)-4-(9-cyclopentyl-5,7,7-trimethyl-6-oxo-6,7,8,9-tetrahydro-5H-pyrimido[4,5-b][1,4]diazepin-2-ylamino)-3-methoxy-N-(piperidin-3-yl)benzamide]	1 to 2.51 nM
COc1cc(C(=O)NC2CN(C)C2)ccc1Nc1ncc2c(n1)N(C1CCCC1)CCC(=O)N2C [Compound 47, 4-(9-cyclopentyl-5-methyl-6-oxo-6,7,8,9-tetrahydro-5H-pyrimido[4,5-b][1,4]diazepin-2-ylamino)-3-methoxy-N-(1-methylazetidin-3-yl)benzamide]	3.16 to 10 nM
COc1cc(C(=O)NC2CCN(C)CC2)ccc1Nc1ncc2c(n1)N(C1CCCC1)CC1(CC1)C(=O)N2C [Compound 33, 4-(9′-cyclopentyl-5′-methyl-6′-oxo-5′,6′,8′,9′-tetrahydrospiro[cyclopropane-1,7′-pyrimido[4,5-b][1,4]diazepine]-2′-ylamino)-3-methoxy-N-(1-methylpiperidin-4-yl)benzamide]	1 to 2.51 nM
C=CCC1CN(C2CCCCC2)c2nc(Nc3ccc(C(=O)N[C@H]4CCCNC4)cc3OC)ncc2N(C)C1=O (stereo partly drawn) [Compound 192, 4-(7-allyl-9-cyclohexyl-5-methyl-6-oxo-6,7,8,9-tetrahydro-5H-pyrimido[4,5-b][1,4]diazepin-2-ylamino)-3-methoxy-N-((S)-piperidin-3-yl)benzamide]	> 10 nM
COc1cc(C(=O)N[C@H]2CCCNC2)ccc1Nc1ncc2c(n1)N(C1CCCC1)CC1(CCC1)C(=O)N2C [Compound 182, (S)-4-(9′-cyclopentyl-5′-methyl-6′-oxo-5′,6′,8′,9′-tetrahydrospiro[cyclobutane-1,7′-pyrimido[4,5-b][1,4]diazepine]-2′-ylamino)-3-methoxy-N-(piperidin-3-yl)benzamide]	1 to 2.51 nM
COc1cc(C(=O)N[C@H]2CCCN(C)C2)ccc1Nc1ncc2c(n1)N(C1CCCC1)CC1(CC1)C(=O)N2C [Compound 164, (S)-4-(9′-cyclopentyl-5′-methyl-6′-oxo-5′,6′,8′,9′-tetrahydrospiro-[cyclopropane-1,7′-pyrimido[4,5-b][1,4]diazepine]-2′-ylamino)-3-methoxy-N-(1-methylpiperidin-3-yl)benzamide]	1 to 2.51 nM
COc1cc(C(=O)N[C@H]2CCCNC2)ccc1Nc1ncc2c(n1)N(C1CCCCC1)CC(C)(C)C(=O)N2C [Compound 111, (S)-4-(9-cyclohexyl-5,7,7-trimethyl-6-oxo-6,7,8,9-tetrahydro-5H-pyrimido[4,5-b][1,4]diazepin-2-ylamino)-3-methoxy-N-(piperidin-3-yl)benzamide]	1 to 2.51 nM
COc1cc(C(=O)NC2CCN(C)CC2)ccc1Nc1ncc2c(n1)N(C1CCCCC1)CC1(CC1)C(=O)N2C [Compound 169, 4-(9′-cyclohexyl-5′-methyl-6′-oxo-5′,6′,8′,9′-tetrahydrospiro[cyclopropane-1,7′-pyrimido[4,5-b][1,4]diazepine]-2′-ylamino)-3-methoxy-N-(1-methylpiperidin-4-yl)benzamide]	1 to 2.51 nM
COc1cc(C(=O)NCc2cccnc2)ccc1Nc1ncc2c(n1)N(C1CCCC1)CCC(=O)N2C [Compound 70, 4-(9-cyclopentyl-5-methyl-6-oxo-6,7,8,9-tetrahydro-5H-pyrimido[4,5-b][1,4]diazepin-2-ylamino)-3-methoxy-N-(pyridin-3-ylmethyl)benzamide]	3.16 to 10 nM
COc1cc(C(=O)NCCN2CCNCC2)ccc1Nc1ncc2c(n1)N(C1CCCC1)CCC(=O)N2C [Compound 55, 4-(9-cyclopentyl-5-methyl-6-oxo-6,7,8,9-tetrahydro-5H-pyrimido[4,5-b][1,4]diazepin-2-ylamino)-3-methoxy-N-(2-(piperazin-1-yl)ethyl)benzamide]	> 10 nM
CC#CC[C@@H]1CN(C2CCCC2)c2nc(Nc3ccc(C(=O)NC4CCN(C)CC4)cc3OC)ncc2N(C)C1=O [Compound 216, (R)-4-(7-(but-2-ynyl)-9-cyclopentyl-5-methyl-6-oxo-6,7,8,9-tetrahydro-5H-pyrimido[4,5-b][1,4]diazepin-2-ylamino)-3-methoxy-N-(1-methylpiperidin-4-yl)benzamide]	1 to 2.51 nM
COc1cc(C(=O)N[C@@H]2CCCN(C)C2)ccc1Nc1ncc2c(n1)N(C1CCCC1)CC(C)(C)C(=O)N2C [Compound 98, (R)-4-(9-cyclopentyl-5,7,7-trimethyl-6-oxo-6,7,8,9-tetrahydro-5H-pyrimido[4,5-b][1,4]diazepin-2-ylamino)-3-methoxy-N-(1-methylpiperidin-3-yl)benzamide]	1 to 2.51 nM

Next, values leading:

IC50	Structure (SMILES)
3.16 to 10 nM	CCC1(C)CN(C2CCCCC2)c2nc(Nc3ccc(C(=O)NC4CN(C)C4)cc3OC)ncc2N(C)C1=O (centres unmarked) [Compound 140, 4-(9-cyclohexyl-7-ethyl-5,7-dimethyl-6-oxo-6,7,8,9-tetrahydro-5H-pyrimido[4,5-b][1,4]diazepin-2-ylamino)-3-methoxy-N-(1-methylazetidin-3-yl)benzamide]
< 1 nM	COc1cc(C(=O)NN2CCOCC2)ccc1Nc1ncc2c(n1)N(C1CCCC1)CC(C)(C)C(=O)N2C [Compound 104, 4-(9-cyclopentyl-5,7,7-trimethyl-6-oxo-6,7,8,9-tetrahydro-5H-pyrimido[4,5-b][1,4]diazepin-2-ylamino)-3-methoxy-N-morpholinobenzamide]
3.16 to 10 nM	COc1cc(C(=O)NC2CN(C)C2)ccc1Nc1ncc2c(n1)N(C1CCC1)CC(C)(C)C(=O)N2C [Compound 154, 4-(9-cyclobutyl-5,7,7-trimethyl-6-oxo-6,7,8,9-tetrahydro-5H-pyrimido[4,5-b][1,4]diazepin-2-ylamino)-3-methoxy-N-(1-methylazetidin-3-yl)benzamide]
> 10 nM	COc1cc(C(=O)NC2CN(C)C2)ccc1Nc1ncc2c(n1)N(C1CCCCC1)CC(C1CC1)C(=O)N2C (centres unmarked) [Compound 157, 4-(9-cyclohexyl-7-cyclopropyl-5-methyl-6-oxo-6,7,8,9-tetrahydro-5H-pyrimido[4,5-b][1,4]diazepin-2-ylamino)-3-methoxy-N-(1-methylazetidin-3-yl)benzamide]
> 10 nM	COc1cc(C(=O)NC2CCN(C(C)C)CC2)ccc1Nc1ncc2c(n1)N(C1CCCC1)CCC(=O)N2C [Compound 77, 4-(9-cyclopentyl-5-methyl-6-oxo-6,7,8,9-tetrahydro-5H-pyrimido[4,5-b][1,4]diazepin-2-ylamino)-N-(1-isopropylpiperidin-4-yl)-3-methoxybenzamide]
1 to 2.51 nM	C=CC1(C)CN(C2CCCC2)c2nc(Nc3ccc(C(=O)N[C@H]4CCCNC4)cc3OC)ncc2N(C)C1=O (stereo partly drawn) [Compound 246, 4-(9-cyclopentyl-5,7-dimethyl-6-oxo-7-vinyl-6,7,8,9-tetrahydro-5H-pyrimido[4,5-b][1,4]diazepin-2-ylamino)-3-methoxy-N-((S)-piperidin-3-yl)benzamide]
1 to 2.51 nM	COc1cc(C(=O)N[C@@H]2CCCN(C)C2)ccc1Nc1ncc2c(n1)N(C1CCCC1)CC1(CC1)C(=O)N2C [Compound 165, (R)-4-(9′-cyclopentyl-5′-methyl-6′-oxo-5′,6′,8′,9′-tetrahydrospiro[cyclopropane-1,7′-pyrimido[4,5-b][1,4]diazepine]-2′-ylamino)-3-methoxy-N-(1-methylpiperidin-3-yl)benzamide]
3.16 to 10 nM	CNC(=O)c1ccc(Nc2ncc3c(n2)N(C2CCCC2)CCC(=O)N3C)c(OC)c1 [Compound 10, 4-[(9-cyclopentyl-5-methyl-6-oxo-6,7,8,9-tetrahydro-5H-pyrimido[4,5-b][1,4]diazepin-2-yl)amino]-3-methoxy-N-methylbenzamide]
< 1 nM	COc1cc(C(=O)N[C@H]2CCCN(C)C2)ccc1Nc1ncc2c(n1)N(C1CCCC1)CC(C)(C)C(=O)N2C [Compound 99, (S)-4-(9-cyclopentyl-5,7,7-trimethyl-6-oxo-6,7,8,9-tetrahydro-5H-pyrimido[4,5-b][1,4]diazepin-2-ylamino)-3-methoxy-N-(1-methylpiperidin-3-yl)benzamide]
3.16 to 10 nM	CC[C@H]1CN(C2CCCC2)c2nc(Nc3ccc(C(=O)NC4CCN(C)CC4)cc3OC)ncc2N(C)C1=O [Compound 36, (S)-4-(9-Cyclopentyl-7-ethyl-5-methyl-6-oxo-6,7,8,9-tetrahydro-5H-pyrimido[4,5-b][1,4]diazepin-2-ylamino)-3-methoxy-N-(1-methyl-piperidin-4-yl)-benzamide]

Reference: patent publication US20090291938A1 (TAKEDA PHARMACEUTICAL COMPANY LIMITED, priority 2007, published 2009)
